Reference: patent US12016843B2, “Compositions and methods for the treatment of amyotrophic lateral sclerosis, parkinson's disease, parkinson's disease with dementia, dementia with lewy bodies, and multiple system atrophy” (priority 2019, dated 2024)

Tests used:
[1] = test system: C57BL/6 mice injected with A53T mutant alpha-synuclein viral particles; test: Dopaminergic neuron loss in substantia nigra pars compacta induced by AAV9 human A53T alpha-synuclein (TH positive neuron counts); type: in vivo, mouse; conditions: 0.5 mg/kg or 5.0 mg/kg daily ip for 5 weeks, vs group A (A53T AAV, no drug)
Protocol: Dopaminergic neuron loss in the substantia nigra pars compacta (SNc) was induced in wildtype C57BL/6 mice using AAV9 mediated viral delivery of human alpha-synuclein harboring the pathogenic A53T mutation. 4×10^10 viral particles per SNc were injected bilaterally via stereotactic surgery. Animals were nine weeks of age when viral transduction was performed. Animals were treated daily with intraperitoneal administration of (Ia) beginning 24 hours before viral transduction and continued for 5 weeks. Experimental groups were as follows: • 1. Group A—AAV A53T injected, vehicle treatment (n=7) • 2. Group B1—AAV A53T injected, (Ia) at 0.5 mg/kg treatment (n=8) • 3. Group B2—AAV A53T injected, (Ia) at 5.0 mg/kg treatment (n=8) • 4. Group C1—Sham AAV9 injected, (Ia) at 0.5 mg/kg treatment (n=6) • 5. Group C2—Sham AAV9 injected, (Ia) at 5.0 mg/kg treatment (n=7)
Five weeks following viral transduction, animals were sacrificed and brains were removed and processed for immunohistochemistry and cell counts (i.e., number of TH positive neurons) in the substantia nigra pars compacta were performed via automated stereology. Serial sections were cut and stained with tyrosine hydroxylase (TH) to enumerate the number of dopaminergic neurons. Results are illustrated in FIGS. 6A and 6B; ** p<0.01 vs groups; *** p<0.001 vs group A; ^OO p<0.001 vs group C1 and C2.

[2] = test system: SOD1 G93A high copy transgenic mice; test: Lifespan (survival to humane end of life) in SOD1 G93A mouse model of ALS; type: in vivo; conditions: vs vehicle control
Protocol: (§1) Study Design. Three experimental groups of n=20 (10 male, 10 female) SOD1 G93A high copy transgenic mice were dosed daily via intraperitoneal administration of vehicle control; (R)-2-amino-N—((S)-1-(((S)-5-amino-1-(3-benzyl-1,2,4-oxadiazol-5-yl)pentyl)amino)-3-(4-hydroxy-2,6-dimethylphenyl)-1-oxopropan-2-yl)-5-guanidinopentanamide (as its tris-HCl salt-(Ia)) at 0.5 mg/kg; or (R)-2-amino-N—((S)-1-(((S)-5-amino-1-(3-benzyl-1,2,4-oxadiazol-5-yl)pentyl)amino)-3-(4-hydroxy-2,6-dimethylphenyl)-1-oxopropan-2-yl)-5-guanidinopentanamide (as its tris-HCl salt—(Ia)) at 5.0 mg/kg. Animals were dosed beginning at 8 weeks of age and dosing was continued until humane end of life (defined by the inability of animal to right itself from either side within 30 seconds when placed on its side). Experimental endpoints and in-life collections and observations were as follows: • 1. Bodyweight measurement. Daily recording of weight. • 2. Neurological scoring. Weekly NeuroScore, a qualitative assessment of neurological disease progression based upon a five-point grading system. […] The average force in grams of the 3 forepaw and 3 all-paws trials are analyzed with and without normalization to body weight. • 4. […]

[3] = test system: SOD1 G93A high copy transgenic mice; test: Forelimb grip strength test in SOD1 G93A mouse model of ALS; type: in vivo; conditions: 10 weeks on drug; for grip strength Mean Diff. (Dunnett's multiple comparisons test, Vehicle vs. 0.5 mg/kg): 0.5 mg/kg daily ip; for grip strength Mean Diff. (Dunnett's multiple comparisons test, Vehicle vs. 5.0 mg/kg): 5.0 mg/kg daily ip
Protocol: Study Design. Three experimental groups of n=20 (10 male, 10 female) SOD1 G93A high copy transgenic mice were dosed daily via intraperitoneal administration of vehicle control; (R)-2-amino-N—((S)-1-(((S)-5-amino-1-(3-benzyl-1,2,4-oxadiazol-5-yl)pentyl)amino)-3-(4-hydroxy-2,6-dimethylphenyl)-1-oxopropan-2-yl)-5-guanidinopentanamide (as its tris-HCl salt-(Ia)) at 0.5 mg/kg; or (R)-2-amino-N—((S)-1-(((S)-5-amino-1-(3-benzyl-1,2,4-oxadiazol-5-yl)pentyl)amino)-3-(4-hydroxy-2,6-dimethylphenyl)-1-oxopropan-2-yl)-5-guanidinopentanamide (as its tris-HCl salt—(Ia)) at 5.0 mg/kg. Animals were dosed beginning at 8 weeks of age and dosing was continued until humane end of life (defined by the inability of animal to right itself from either side within 30 seconds when placed on its side). Experimental endpoints and in-life collections and observations were as follows: • 1. Bodyweight measurement. Daily recording of weight. • 2. Neurological scoring. Weekly NeuroScore, a qualitative assessment of neurological disease progression based upon a five-point grading system. Scoring is defined as follows: • Score 0: Full extension of hind legs away from the lateral midline when the mouse is suspended by its tail, and the mouse can hold this extension for 2 seconds, being suspended 3 times consecutively. • Score 1: Collapse or partial collapse of the leg extension toward the lateral midline or trembling of hind legs during the tail suspension. • Score 2: Toes curl under at least twice during walking of 12 inches, or any part of the foot is dragging along the cage bottom or table. • Score 3: Rigid paralysis or minimal joint movement, the foot is not being used for forward motion. • Score 4: The mouse cannot right itself within 30 sec from either side. • 3. Grip strength test. Weekly forelimb grip strength, performed as follows: • a. Subjects are weighed and acclimated to the testing room for at least 60 min. • b. Equipment: Bioseb grip strength meter equipped with a grid for grasping that is suited for mice. • c. Mice are lowered towards the grid by their tails to allow for visual placing and for the mouse to grip the grid with their forepaws. • d. Subjects are firmly pulled horizontally away from the grid (parallel to the bench) for 3 consecutive trials with a brief (approximately 30 sec) rest period on the bench between trials. • e. The average force in grams of the 3 forepaw and 3 all-paws trials are analyzed with and without normalization to body weight. • 4. Retro-orbital blood collection. Bi-weekly retroorbital eye bleeds to determine drug exposure levels as well as levels of neurofilament light chain, a biomarker of axonal damage shown to correlate with ALS disease progression in human patients. Briefly, mice are sedated with isoflurane (5% induction, 2% maintenance) in O2. […]
Systemic administration of (R)-2-amino-N—((S)-1-(((S)-5-amino-1-(3-benzyl-1,2,4-oxadiazol-5-yl)pentypamino)-3-(4-hydroxy-2,6-dimethylphenyl)-1-oxopropan-2-yl)-5-guanidinopentanamide attenuates decline in muscle strength in ALS mouse model. As shown in FIG. 2A and Table 1A, systemic administration of (R)-2-amino-N—((S)-1-(((S)-5-amino-1-(3-benzyl-1,2,4-oxadiazol-5-yl)pentyl)amino)-3-(4-hydroxy-2,6-dimethylphenyl)-1-oxopropan-2-yl)-5-guanidinopentanamide (as its tris-HCl salt—(Ia)) attenuates the loss of grip strength in male SOD1 G93A transgenic mice. Grip strength values were determined at baseline (week 8) and through end of life for each animal. […]

[4] = test system: SOD1 G93A high copy transgenic mice; test: Neurological scoring (NeuroScore) in SOD1 G93A mouse model of ALS; type: in vivo; conditions: vs vehicle
Protocol: as §1

[5] = female SOD1 G93A mice, daily intraperitoneal

Question: How did the “mutant alpha-synuclein-induced loss of dopaminergic neurons in the substantia nigra (number of TH positive neurons)” value [1] turn out when `Cc1cc(O)cc(C)c1C[C@H](NC(=O)[C@H](N)CCCNC(=N)N)C(=O)N[C@@H](CCCCN)c1nc(Cc2ccccc2)no1.Cl.Cl.Cl` [Compound Ia, (R)-2-amino-N—((S)-1-(((S)-5-amino-1-(3-benzyl-1,2,4-oxadiazol-5-yl)pentyl)amino)-3-(4-hydroxy-2,6-dimethylphenyl)-1-oxopropan-2-yl)-5-guanidinopentanamide·3HCl] was run?
Answer: significantly attenuated

Question: And the lifespan [2, 5]?
Answer: no effects

Question: What about the lifespan ([2]; male SOD1 G93A mice, 5.0 mg/kg daily intraperitoneal) of the same molecule?
Answer: significantly increased

Question: And the “grip strength Mean Diff. (Dunnett's multiple comparisons test, Vehicle vs. 0.5 mg/kg)” value ([3]; female SOD1 G93A mice)?
Answer: −6.081

Question: What about the “grip strength Mean Diff. (Dunnett's multiple comparisons test, Vehicle vs. 5.0 mg/kg)” value ([3]; female SOD1 G93A mice) of the same molecule?
Answer: −7.905

Question: What about the “grip strength Mean Diff. (Dunnett's multiple comparisons test, Vehicle vs. 0.5 mg/kg)” value ([3]; male SOD1 G93A mice) of the same molecule?
Answer: −0.7940

Question: And the “grip strength Mean Diff. (Dunnett's multiple comparisons test, Vehicle vs. 5.0 mg/kg)” value ([3]; male SOD1 G93A mice)?
Answer: −11.90

Question: What about the “loss of grip strength” value ([3]; male SOD1 G93A mice, 5.0 mg/kg, p=0.08) of the same molecule?
Answer: trend in protection from loss of grip strength

Question: And the “progression of neurological symptom onset (five-point neurological score)” value [4, 5]?
Answer: no effects

Question: And the “progression of neurological symptom onset (five-point neurological score)” value ([4]; male SOD1 G93A mice, 5.0 mg/kg daily intraperitoneal from 8 weeks of age, two-way ANOVA)?
Answer: delayed the progression of neurological symptom onset
